In PMC5515887, “Ruthenium-conjugated chrysin analogues modulate platelet activity, thrombus formation and haemostasis with enhanced efficacy” (Scientific Reports, 2017):
Where two headings read alike, the source gives them in different places.

What was measured:
[1] = test system: α-granule secretion in platelets; experiment: P-selectin exposure by flow cytometry (marker for α-granule secretion); type: cell-based, human; details: PRP, CRP-XL 0.5 μg/mL
Method: Platelets primarily contain two types of granules (α- and dense granules) and the activation of platelets releases the granule contents to the external environment, where they play important roles in the stimulation of additional platelets and their recruitment to the growing thrombus. […] However, chrysin affected α-granule secretion only at a minimum concentration of 50 μM in platelets.
Figure 5 Chrysin and its derivatives affect granule secretion in platelets. […] The level of P-selectin (as a marker for α-granule secretion) was quantified using PECy5-labelled anti-human P-selectin antibodies by flow cytometry. […] R represents ‘resting’ platelets. […] Platelets were then activated with 0.5 μg/mL CRP-XL and the ATP release was monitored for 5 minutes by lumi-aggregometry. The traces shown are representative of three separate experiments.

[2] = target: T1, human serum albumin (HSA) (Homo sapiens, UniProt P02768); experiment: HSA binding assay (TRANSIL XL HSA binding kit)
T1 construct: purchased Sovicell, Germany
T1 sequence (P02768 25-609): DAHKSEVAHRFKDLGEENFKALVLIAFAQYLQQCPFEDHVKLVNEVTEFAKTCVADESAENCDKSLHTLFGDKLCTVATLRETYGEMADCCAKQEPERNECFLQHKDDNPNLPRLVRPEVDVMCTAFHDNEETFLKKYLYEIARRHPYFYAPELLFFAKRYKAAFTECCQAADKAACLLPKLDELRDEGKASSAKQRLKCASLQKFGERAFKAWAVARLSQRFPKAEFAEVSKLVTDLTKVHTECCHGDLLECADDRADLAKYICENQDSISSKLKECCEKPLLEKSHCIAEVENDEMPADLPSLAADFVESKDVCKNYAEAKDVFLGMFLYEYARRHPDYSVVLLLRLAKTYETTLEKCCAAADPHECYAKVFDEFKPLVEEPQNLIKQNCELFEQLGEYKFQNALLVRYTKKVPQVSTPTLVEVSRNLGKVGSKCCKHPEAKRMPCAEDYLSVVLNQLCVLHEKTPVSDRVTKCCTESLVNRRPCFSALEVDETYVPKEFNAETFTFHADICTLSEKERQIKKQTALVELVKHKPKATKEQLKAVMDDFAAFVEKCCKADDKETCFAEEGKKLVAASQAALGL
Method: HSA binding assay was performed using TRANSIL^XL binding kit (Sovicell, Germany) according to the manufacturer’s protocol. […] The plate was then incubated on a plate shaker at 100 g for 12 minutes followed by centrifugation for 10 minutes at 750 g.

Src = experiment: Immunoblot of Src phosphorylation at Y527 in CRP-XL activated platelets; type: cell-based, human; details: washed platelets, CRP-XL 0.5 μg/mL
Source text: (§1) The calcium traces (Ai and Bi) shown are representative of three separate experiments. […] The platelets were lysed and used for immunoblot analysis to detect the level of AKT phosphorylation at residue S473, FAK phosphorylation at Y397 and phosphorylation of Src at Y527. The level of 14-3-3ζ protein was detected as a loading control. The cropped images of the blots shown here are representative of three separate experiments. The uncropped full length blots are presented in Supplementary Information (Figure S8).
(§2) Calcium mobilisation is associated with phosphoinositide 3-kinase (PI3K) signalling in platelets. Protein kinase B (AKT) is a downstream effector of PI3K and a key marker for the PI3K/AKT signalling pathway. […]
(§3) The preparation of human platelets and aggregation assays were performed using standard protocols as described by us previously, [16]. Briefly, human blood was collected in 3.2% citrate containing vacutainers via venepuncture from healthy, aspirin-free individuals with informed consent in accordance with the methods approved by the University of Reading Research Ethics Committee. […] Dense granule secretion in platelets was determined by measuring the ATP release using the luciferin-luciferase reagent by lumi-aggregometry (Chrono-Log, USA). […]

human whole blood = experiment: In vitro thrombus formation under arterial flow conditions on collagen-coated Vena8 biochips; type: cell-based; details: 100 μM compound
Method: Platelet activation under arterial flow conditions culminates in the formation of thrombus at the damaged blood vessels and thereby reducing the blood supply to target tissues.
(§4) Thrombus formation was monitored by capturing Z-stack fluorescent images at every 30 seconds over 10 minutes by fluorescence microscopy. The images shown (A) at different time points and traces (B) are representative of three separate experiments. […] Data represent ± S.D. (n = 8 mice in each group).
Z-stack images of thrombi were obtained every 30 seconds for up to 10 minutes using a Nikon eclipse (TE2000-U) microscope (Nikon Instruments, UK). The median fluorescence intensity and thrombus volume were calculated by analysing the images using ImageJ.

haemostasis in mice = experiment: Tail bleeding assay; type: in vivo, C57BL/6 mice; details: final concentration 25 μM via femoral artery, 5 minutes before tail tip dissection, control 445 seconds
Method: as §4, with “group). The p values shown (*p < 0.05 and ***p < 0.001) are as calculated by non-parametric Mann-Whitney test using Graphpad Prism.” for “group).”
Following five minutes incubation, 1 mm of tail tip was dissected and the bleeding time was monitored.
The University of Reading Local Ethical Review Panel and the British Home Office approved the tail-bleeding assay performed in this study. All methods were performed in accordance with the relevant guidelines and regulations. In brief, C57BL/6 mice (9 weeks old; Envigo, UK) were anaesthetized using ketamine (80 mg kg^−1) and xylazine (5 mg kg^−1) administered via intraperitoneal route 20 minutes prior to the experiment and placed on a heated pad (37 °C). […] The tail tip was placed in sterile saline at 37 °C and the time to cessation of bleeding was measured up to 20 minutes.

AKT = experiment: Immunoblot of AKT phosphorylation at S473 in CRP-XL activated platelets; type: cell-based, human; details: washed platelets, CRP-XL 0.5 μg/mL
Source text: as §1, §2, §3

FAK = experiment: Immunoblot of FAK phosphorylation at Y397 in CRP-XL activated platelets; type: cell-based, human; details: washed platelets, CRP-XL 0.5 μg/mL
Source text: as §1, §2, §3

Molecule	concentrations that significantly inhibit α-granule secretion [1]	Kd [2]	fraction unbound at 12 min, 50 µM ([2]; human, plasma)	effect on dephosphorylation of Src at Y527 (Src)	inhibition at 100 µM (human whole blood; 10 min, 20 dynes/cm^2, read-out: inhibition of thrombus growth and volume)	bleeding time (average) (haemostasis in mice)	effect on AKT phosphorylation at S473 (AKT)	effect on FAK phosphorylation at Y397 (FAK)	inhibition of α-granule secretion (P-selectin) ([1]; 100 μM compound)	fraction bound to plasma (fb) ([2]; TRANSIL XL HSA binding kit)	Kd ([2]; TRANSIL XL HSA binding kit, 50 µM compound, read-out: binding affinity (Kd) to HSA)	inhibition of thrombus growth and volume (human whole blood; 20 dynes/cm^2, 10 minutes)
O=c1cc(-c2ccccc2)oc2cc(O)cc(O)c12 [chrysin]	≥ 50 µM	1.93 µM	0.003	significant impact on the dephosphorylation of Src at Y527	~50%	901 s	inhibited their phosphorylation in a concentration-dependent manner	inhibited their phosphorylation in a concentration-dependent manner	–	–	–	–
chlorido [(5-oxo-κO)-7-hydroxy-(2-phenyl)-4H-chromen-4-thionato-κS] (η6-p-cymene)ruthenium(II) [Ru-thio-chrysin]	≥ 12.5 µM	–	–	significant impact on the dephosphorylation of Src at Y527	–	1096 s	inhibited their phosphorylation in a concentration-dependent manner	inhibited their phosphorylation in a concentration-dependent manner	approximately 80%	< 29.6%	1400 µM	approximately 75%
